PubChem BioAssay (NCI)
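Cells were grown in 96-well plates and exposed to each compound for 48 hours at five concentrations; endpoints were interpolated linearly between bracketing concentrations, or set to the highest concentration if not reached. TGI marks complete inhibition of growth.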

Experiments:
Assay in all cases: inhibition of tumour cell growth, NCI panel, 48 h
786-0 renal = system: 786-0 renal
A498 renal = system: A498 renal
A549 NSCLC = system: A549 NSCLC
ACHN renal = system: ACHN renal
CAKI-1 renal = system: CAKI-1 renal
CCRF-CEM leukemia = system: CCRF-CEM leukemia
COLO 205 colon = system: COLO 205 colon
DMS 114 small cell lung = system: DMS 114 small cell lung
DMS 273 small cell lung = system: DMS 273 small cell lung
EKVX NSCLC = system: EKVX NSCLC
HCT-15 colon = system: HCT-15 colon
HL-60(TB) leukemia = system: HL-60(TB) leukemia
HOP-18 NSCLC = system: HOP-18 NSCLC
HOP-62 NSCLC = system: HOP-62 NSCLC
HOP-92 NSCLC = system: HOP-92 NSCLC
HT29 colon = system: HT29 colon
IGROV1 ovarian = system: IGROV1 ovarian
K-562 leukemia = system: K-562 leukemia
KM12 colon = system: KM12 colon
KM20L2 colon = system: KM20L2 colon
LOX IMVI melanoma = system: LOX IMVI melanoma
LXFL 529 NSCLC = system: LXFL 529 NSCLC
M14 melanoma = system: M14 melanoma
M19-MEL melanoma = system: M19-MEL melanoma
MALME-3M melanoma = system: MALME-3M melanoma
MOLT-4 leukemia = system: MOLT-4 leukemia
NCI-H226 lung = system: NCI-H226 lung
NCI-H23 lung = system: NCI-H23 lung
NCI-H460 lung = system: NCI-H460 lung
NCI-H522 lung = system: NCI-H522 lung
OVCAR-3 ovarian = system: OVCAR-3 ovarian
OVCAR-4 ovarian = system: OVCAR-4 ovarian
OVCAR-5 ovarian = system: OVCAR-5 ovarian
OVCAR-8 ovarian = system: OVCAR-8 ovarian
RPMI-8226 leukemia = system: RPMI-8226 leukemia
RXF 393 renal = system: RXF 393 renal
SF-268 CNS = system: SF-268 CNS
SF-295 CNS = system: SF-295 CNS
SF-539 CNS = system: SF-539 CNS
SK-MEL-2 melanoma = system: SK-MEL-2 melanoma
SK-MEL-28 melanoma = system: SK-MEL-28 melanoma
SK-MEL-5 melanoma = system: SK-MEL-5 melanoma
SK-OV-3 ovarian = system: SK-OV-3 ovarian
SN12C renal = system: SN12C renal
SNB-19 CNS = system: SNB-19 CNS
SNB-75 CNS = system: SNB-75 CNS
SW-620 colon = system: SW-620 colon
TK-10 renal = system: TK-10 renal
U251 CNS = system: U251 CNS
UACC-257 melanoma = system: UACC-257 melanoma
UACC-62 melanoma = system: UACC-62 melanoma
UO-31 renal = system: UO-31 renal
XF 498 CNS = system: XF 498 CNS
DLD-1 colon = system: DLD-1 colon
HCC-2998 colon = system: HCC-2998 colon
HCT-116 colon = system: HCT-116 colon
SR leukemia = system: SR leukemia
BT-549 breast = system: BT-549 breast
DU-145 prostate = system: DU-145 prostate
HS 578T breast = system: HS 578T breast
MCF7 breast = system: MCF7 breast
MDA-MB-231 breast = system: MDA-MB-231 breast
MDA-MB-435 = system: MDA-MB-435
MDA-N = system: MDA-N
NCI/ADR-RES ovarian = system: NCI/ADR-RES ovarian
PC-3 prostate = system: PC-3 prostate
T-47D breast = system: T-47D breast

## O=C1O[C@H](C(Cl)(Cl)Cl)N2CCCC12 (stereo partly drawn)
786-0 renal
  TGI: > 100 µM
A498 renal
  TGI: > 100 µM
A549 NSCLC
  TGI: > 100 µM
ACHN renal
  TGI: > 100 µM
CAKI-1 renal
  TGI: > 100 µM
CCRF-CEM leukemia
  TGI: > 100 µM
COLO 205 colon
  TGI: > 100 µM
DMS 114 small cell lung
  TGI: > 100 µM
DMS 273 small cell lung
  TGI: > 100 µM
EKVX NSCLC
  TGI: > 100 µM
HCT-15 colon
  TGI: > 100 µM
HL-60(TB) leukemia
  TGI: > 100 µM
HOP-18 NSCLC
  TGI: > 100 µM
HOP-62 NSCLC
  TGI: > 100 µM
HOP-92 NSCLC
  TGI: > 100 µM
HT29 colon
  TGI: > 100 µM
IGROV1 ovarian
  TGI: > 100 µM
K-562 leukemia
  TGI: > 100 µM
KM12 colon
  TGI: > 100 µM
KM20L2 colon
  TGI: > 100 µM
LOX IMVI melanoma
  TGI: > 100 µM
LXFL 529 NSCLC
  TGI: > 100 µM
M14 melanoma
  TGI: > 100 µM
M19-MEL melanoma
  TGI: > 100 µM
MALME-3M melanoma
  TGI: > 100 µM
MOLT-4 leukemia
  TGI: > 100 µM
NCI-H226 lung
  TGI: > 100 µM
NCI-H23 lung
  TGI: > 100 µM
NCI-H460 lung
  TGI: > 100 µM
NCI-H522 lung
  TGI: > 100 µM
OVCAR-3 ovarian
  TGI: > 100 µM
OVCAR-4 ovarian
  TGI: > 100 µM
OVCAR-5 ovarian
  TGI: > 100 µM
OVCAR-8 ovarian
  TGI: > 100 µM
RPMI-8226 leukemia
  TGI: > 100 µM
RXF 393 renal
  TGI: > 100 µM
SF-268 CNS
  TGI: > 100 µM
SF-295 CNS
  TGI: > 100 µM
SF-539 CNS
  TGI: > 100 µM
SK-MEL-2 melanoma
  TGI: > 100 µM
SK-MEL-28 melanoma
  TGI: > 100 µM
SK-MEL-5 melanoma
  TGI: > 100 µM
SK-OV-3 ovarian
  TGI: > 100 µM
SN12C renal
  TGI: > 100 µM
SNB-19 CNS
  TGI: > 100 µM
SNB-75 CNS
  TGI: > 100 µM
SW-620 colon
  TGI: > 100 µM
TK-10 renal
  TGI: > 100 µM
U251 CNS
  TGI: > 100 µM
UACC-257 melanoma
  TGI: > 100 µM
UACC-62 melanoma
  TGI: > 100 µM
UO-31 renal
  TGI: > 100 µM
XF 498 CNS
  TGI: > 100 µM

## COc1ccc(C[C@H](N)C(=O)N2C[C@H](CO)C[C@H](n3cnc4c(N(C)C)ncnc43)C2)cc1
A549 NSCLC
  TGI: > 100 µM
ACHN renal
  TGI: > 100 µM
CAKI-1 renal
  TGI: > 100 µM
CCRF-CEM leukemia
  TGI: > 100 µM
COLO 205 colon
  TGI: > 100 µM
DLD-1 colon
  TGI: > 100 µM
DMS 114 small cell lung
  TGI: > 100 µM
DMS 273 small cell lung
  TGI: > 100 µM
EKVX NSCLC
  TGI: > 100 µM
HCC-2998 colon
  TGI: > 100 µM
HCT-116 colon
  TGI: > 100 µM
HCT-15 colon
  TGI: > 100 µM
HL-60(TB) leukemia
  TGI: > 100 µM
HOP-18 NSCLC
  TGI: > 100 µM
HOP-62 NSCLC
  TGI: > 100 µM
HOP-92 NSCLC
  TGI: > 100 µM
HT29 colon
  TGI: > 100 µM
IGROV1 ovarian
  TGI: > 100 µM
K-562 leukemia
  TGI: > 100 µM
KM12 colon
  TGI: > 100 µM
KM20L2 colon
  TGI: > 100 µM
LOX IMVI melanoma
  TGI: > 100 µM
LXFL 529 NSCLC
  TGI: > 100 µM
M14 melanoma
  TGI: > 100 µM
M19-MEL melanoma
  TGI: > 100 µM
MALME-3M melanoma
  TGI: > 100 µM
MOLT-4 leukemia
  TGI: > 100 µM
NCI-H226 lung
  TGI: > 100 µM
NCI-H23 lung
  TGI: > 100 µM
NCI-H460 lung
  TGI: > 100 µM
NCI-H522 lung
  TGI: > 100 µM
OVCAR-3 ovarian
  TGI: > 100 µM
OVCAR-4 ovarian
  TGI: > 100 µM
OVCAR-5 ovarian
  TGI: > 100 µM
OVCAR-8 ovarian
  TGI: > 100 µM
RPMI-8226 leukemia
  TGI: > 100 µM
RXF 393 renal
  TGI: > 100 µM
SF-268 CNS
  TGI: > 100 µM
SF-539 CNS
  TGI: > 100 µM
SK-MEL-2 melanoma
  TGI: > 100 µM
SK-MEL-28 melanoma
  TGI: > 100 µM
SK-MEL-5 melanoma
  TGI: > 100 µM
SK-OV-3 ovarian
  TGI: > 100 µM
SN12C renal
  TGI: > 100 µM
SNB-19 CNS
  TGI: > 100 µM
SR leukemia
  TGI: > 100 µM
SW-620 colon
  TGI: > 100 µM
TK-10 renal
  TGI: > 100 µM
U251 CNS
  TGI: > 100 µM
UACC-62 melanoma
  TGI: > 100 µM
UO-31 renal
  TGI: > 100 µM

## CC1CC[C@@]2(OC1)O[C@H]1C[C@H]3[C@@H]4CC[C@H]5C[C@@H](OC6OC(CO)C(OC7OC(CO)C(OC8OC(CO)C(O)C(OC9OC(C)C(OC%10OC(C)C(O)C(O)C%10O)C(O)C9O)C8OC8OCC(O)C(O)C8O)C(O)C7O)C(O)C6O)CC[C@]5(C)[C@H]4CC(=O)[C@]3(C)[C@H]1[C@@H]2C (stereo partly drawn)
786-0 renal
  TGI: 54.9 µM
A498 renal
  TGI: 32.1 µM
A549 NSCLC
  TGI: 51.3 µM
ACHN renal
  TGI: 30.9 µM
BT-549 breast
  TGI: 37 µM
CAKI-1 renal
  TGI: 29.3 µM
CCRF-CEM leukemia
  TGI: 29.2 µM
COLO 205 colon
  TGI: 30.1 µM
DU-145 prostate
  TGI: 40.4 µM
EKVX NSCLC
  TGI: 40.4 µM
HCC-2998 colon
  TGI: 32.8 µM
HCT-116 colon
  TGI: 52.9 µM
HCT-15 colon
  TGI: 35.2 µM
HL-60(TB) leukemia
  TGI: 27.6 µM
HOP-62 NSCLC
  TGI: 45.5 µM
HOP-92 NSCLC
  TGI: 38.2 µM
HS 578T breast
  TGI: 50.7 µM
HT29 colon
  TGI: > 100 µM
IGROV1 ovarian
  TGI: 37.4 µM
K-562 leukemia
  TGI: 32.7 µM
KM12 colon
  TGI: 36.1 µM
LOX IMVI melanoma
  TGI: 53.5 µM
M14 melanoma
  TGI: 41.7 µM
MALME-3M melanoma
  TGI: 41.3 µM
MCF7 breast
  TGI: 31.8 µM
MDA-MB-231 breast
  TGI: 30.1 µM
MDA-MB-435
  TGI: 35.7 µM
MDA-N
  TGI: 39.4 µM
MOLT-4 leukemia
  TGI: 34.6 µM
NCI-H226 lung
  TGI: 35.5 µM
NCI-H23 lung
  TGI: 35.8 µM
NCI-H460 lung
  TGI: 32.9 µM
NCI-H522 lung
  TGI: 42.4 µM
NCI/ADR-RES ovarian
  TGI: 43.2 µM
OVCAR-3 ovarian
  TGI: 42.3 µM
OVCAR-4 ovarian
  TGI: 32.7 µM
OVCAR-5 ovarian
  TGI: 40.3 µM
OVCAR-8 ovarian
  TGI: 38.4 µM
PC-3 prostate
  TGI: 30.9 µM
RPMI-8226 leukemia
  TGI: 33.3 µM
RXF 393 renal
  TGI: 35.7 µM
SF-268 CNS
  TGI: 56.9 µM
SF-295 CNS
  TGI: 39.3 µM
SF-539 CNS
  TGI: 28.5 µM
SK-MEL-2 melanoma
  TGI: 30 µM
SK-MEL-28 melanoma
  TGI: 34.3 µM
SK-MEL-5 melanoma
  TGI: 30.4 µM
SK-OV-3 ovarian
  TGI: 41.6 µM
SN12C renal
  TGI: 40.9 µM
SNB-19 CNS
  TGI: 39.4 µM
SNB-75 CNS
  TGI: 36.5 µM
SR leukemia
  TGI: 30.3 µM
SW-620 colon
  TGI: 42 µM
T-47D breast
  TGI: 43.2 µM
TK-10 renal
  TGI: 31.5 µM
U251 CNS
  TGI: 33.3 µM
UACC-257 melanoma
  TGI: 32.3 µM
UACC-62 melanoma
  TGI: 32.8 µM
UO-31 renal
  TGI: 44.5 µM
